Data reported in patent US20230278996A1, “YKL-40 INHIBITORS AND THEIR THERAPEUTIC APPLICATIONS” (Molecure S.A., priority 2022, published 2023).
Counter-ions that a name gives are not always drawn.

Assays:
[1] = molecular target: YKL-40: heparan sulfate interaction (Homo sapiens (Human), UniProt P36222); assay: YKL-40:HS assay, heparan sulfate interference AlphaScreen; type: binding; details: competition with biotinylated heparan sulphate (60 nM)
YKL-40 = YKL-40 (Homo sapiens (Human), UniProt P36222); assay: YKL-40:4 assay, competitive chitin binding site AlphaScreen; details: competition with biotinylated compound 4 (20 nM), YKL-40-histag 2.5 nM
Chain of YKL-40 (P36222 22-383): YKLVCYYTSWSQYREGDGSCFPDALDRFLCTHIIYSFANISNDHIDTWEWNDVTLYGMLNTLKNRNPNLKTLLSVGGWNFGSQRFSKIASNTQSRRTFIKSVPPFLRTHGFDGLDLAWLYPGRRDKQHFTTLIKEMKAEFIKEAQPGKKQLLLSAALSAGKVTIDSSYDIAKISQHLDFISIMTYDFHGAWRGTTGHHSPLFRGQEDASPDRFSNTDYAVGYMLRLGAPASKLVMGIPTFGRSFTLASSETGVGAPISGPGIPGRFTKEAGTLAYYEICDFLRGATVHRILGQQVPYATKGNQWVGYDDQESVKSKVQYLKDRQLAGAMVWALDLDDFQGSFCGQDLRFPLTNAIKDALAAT

Chain of YKL-40: heparan sulfate interaction (P36222 22-383): as above

| IC50 [1] [µM] | IC50 (YKL-40) [µM] | Compound |
| --- | --- | --- |
| < 0.1 | 0.1 to 1 | Cc1ccnc(N2CCC(N3C[C@H](C)OC[C@@H]3Cc3ccc(Cl)cc3)CC2)c1F [compound 112, (2S,5S)-5-(4-chlorobenzyl)-4-(1-(3-fluoro-4-methylpyridin-2-yl)piperidin-4-yl)-2-methylmorpholine 2,2,2-trifluoroacetate] |
| < 0.1 | < 0.1 | CN1C[C@H](Cc2ccc(Cl)cc2)N(C2CCN(c3cc(Cl)ccn3)CC2)C[C@@H]1Cn1ccnc1 [compound 82, (2R,5S)-2-((1H-imidazol-1-yl)methyl)-5-(4-chlorobenzyl)-4-(1-(4-chloropyridin-2-yl)piperidin-4-yl)-1-methylpiperazine hydrochloride] |
| < 0.1 | < 0.1 | CNC(=O)CN1C[C@H](Cc2ccc(Cl)cc2)N(C2CCN(c3ccccn3)CC2)C[C@@H]1C(C)C [compound 106, 2-((2S,5S)-5-(4-chlorobenzyl)-2-isopropyl-4-(1-(pyridin-2-yl)piperidin-4-yl)piperazin-1-yl)-N-methylacetamide 2,2,2-trifluoroacetate] |
| < 0.1 | < 0.1 | Cc1nc(N2CCC(N3C[C@H](C)OC[C@@H]3Cc3ccc(Cl)cc3)CC2)sc1C [compound 183, (2S,5S)-5-(4-chlorobenzyl)-4-(1-(4,5-dimethylthiazol-2-yl)piperidin-4-yl)-2-methylmorpholine 2,2,2-trifluoroacetate] |
| < 0.1 | < 0.1 | CN1C[C@H](Cc2ccc(Cl)cc2)N(C2CCN(c3cc(Cl)ccn3)CC2)C[C@@H]1CN1CCOCC1 [compound 51, 4-(((2S,5S)-5-(4-chlorobenzyl)-4-(1-(4-chloropyridin-2-yl)piperidin-4-yl)-1-methyl-piperazin-2-yl)methyl)morpholine hydrochloride] |
| 0.1 to 1 | < 0.1 | Cc1cnc(N2CCC(N3C[C@H](C)OC[C@@H]3Cc3ccc(Cl)cc3)CC2)s1 [compound 185, (2S,5S)-5-(4-chlorobenzyl)-2-methyl-4-(1-(5-methylthiazol-2-yl)piperidin-4-yl)morpholine 2,2,2-trifluoroacetate] |
| – | 1 to 10 | CC[C@H]1CN(C2CCN(c3ccccn3)CC2)[C@@H](Cc2ccc(Cl)cc2)CN1CC(C)C [compound 94, (2S,5S)-2-(4-chlorobenzyl)-5-ethyl-4-isobutyl-1-(1-(pyridin-2-yl)piperidin-4-yl)piperazine 2,2,2-trifluoroacetate] |
| – | > 100 | C[C@H]1CN(C2CCN(c3ccnc(Cl)n3)CC2)[C@@H](Cc2ccc(Cl)cc2)CO1 [compound 66, (2S,5S)-5-(4-chlorobenzyl)-4-(1-(2-chloropyrimidin-4-yl)piperidin-4-yl)-2-methylmorpholine] |
| – | > 100 | COc1ncnc(N2CCC(N3C[C@H](C)OC[C@@H]3Cc3ccc(Cl)cc3)CC2)n1 [compound 171, (2S,5S)-5-(4-chlorobenzyl)-4-(1-(4-methoxy-1,3,5-triazin-2-yl)piperidin-4-yl)-2-methylmorpholine 2,2,2-trifluoroacetate] |
| – | > 100 | C[C@H]1CN(C2CCN(c3ncnc(C#N)n3)CC2)[C@@H](Cc2ccc(Cl)cc2)CO1 [compound 173, 4-(4-((2S,5S)-5-(4-chlorobenzyl)-2-methylmorpholino)piperidin-1-yl)-1,3,5-triazine-2-carbonitrile 2,2,2-trifluoroacetate] |
| – | > 100 | Cc1cccnc1N1CCC(N2C[C@H](C)OC[C@@H]2Cc2ccc(Cl)cc2)CC1 [Example 16, (2S,5S)-5-(4-chlorobenzyl)-2-methyl-4-(1-(3-methylpyridin-2-yl)piperidin-4-yl)morpholine 2,2,2-trifluoroacetate] |
| – | > 100 | Cc1cccc(N2CCC(N3C[C@H](C)OC[C@@H]3Cc3ccc(Cl)cc3)CC2)n1 [compound 135, (2S,5S)-5-(4-chlorobenzyl)-2-methyl-4-(1-(6-methylpyridin-2-yl)piperidin-4-yl)morpholine hydrochloride] |
| – | 1 to 10 | Cc1cnnc(N2CCC(N3C[C@H](C)OC[C@@H]3Cc3ccc(Cl)cc3)CC2)c1 [Example 30, (2S,5S)-5-(4-chlorobenzyl)-2-methyl-4-(1-(5-methylpyridazin-3-yl)piperidin-4-yl)morpholine 2,2,2-trifluoroacetate] |
| – | 1 to 10 | CO[C@@H]1CN(c2cc(Cl)ccn2)CC[C@@H]1N1C[C@H](C)OC[C@@H]1Cc1ccc(Cl)cc1 [compound 59, (2S,5S)-5-(4-chlorobenzyl)-4-((3R,4S)-1-(4-chloropyridin-2-yl)-3-methoxypiperidin-4-yl)-2-methylmorpholine 2,2,2-trifluoroacetate] |
| – | 0.1 to 1 | CN1CCN(C2CCN(c3ccccn3)CC2)[C@@H](Cc2ccc(Cl)cc2)C1 [compound 64, (S)-2-(4-chlorobenzyl)-4-methyl-1-(1-(pyridin-2-yl)piperidin-4-yl)piperazine 2,2,2-trifluoroacetate] |
| – | > 100 | Cc1nsc(N2CCC(N3C[C@H](C)OC[C@@H]3Cc3ccc(Cl)cc3)CC2)n1 [compound 180, (2S,5S)-5-(4-chlorobenzyl)-2-methyl-4-(1-(3-methyl-1,2,4-thiadiazol-5-yl)piperidin-4-yl)morpholine 2,2,2-trifluoroacetate] |
| – | > 100 | C[C@H]1CN(C2CCN(c3noc(C(F)(F)F)n3)CC2)[C@@H](Cc2ccc(Cl)cc2)CO1 [compound 164, (2S,5S)-5-(4-chlorobenzyl)-2-methyl-4-(1-(5-(trifluoromethyl)-1,2,4-oxadiazol-3-yl)piperidin-4-yl)morpholine 2,2,2-trifluoroacetate] |
| – | > 100 | C[C@H]1CN(C2CCN(c3cc(=O)[nH]cn3)CC2)[C@@H](Cc2ccc(Cl)cc2)CO1 [compound 167, 6-(4-((2S,5S)-5-(4-chlorobenzyl)-2-methylmorpholino)piperidin-1-yl)pyrimidin-4(3H)-one 2,2,2-trifluoroacetate] |
| – | 0.1 to 1 | Cc1ccnc(N2CCC(N3C[C@@H]4C[C@@H](O)CN4C[C@@H]3Cc3ccc(Cl)cc3)CC2)n1 [Example 41, (3S,7R,8aS)-3-(4-chlorobenzyl)-2-(1-(4-methylpyrimidin-2-yl)piperidin-4-yl)octahydropyrrolo[1,2-α]pyrazin-7-ol 2,2,2-trifluoroacetate] |
| – | > 100 | C[C@H]1CN(C2CCN(c3cc(C(F)(F)F)ncn3)CC2)[C@@H](Cc2ccc(Cl)cc2)CO1 [compound 145, (2S,5S)-5-(4-chlorobenzyl)-2-methyl-4-(1-(6-(trifluoromethyl)pyrimidin-4-yl)piperidin-4-yl)morpholine hydrochloride] |
| – | 10 to 100 | C[C@H]1CN(C2CCN(c3cccc4nccn34)CC2)[C@@H](Cc2ccc(Cl)cc2)CO1 [compound 157, (2S,5S)-5-(4-chlorobenzyl)-4-(1-(imidazo[1,2-α]pyridin-5-yl)piperidin-4-yl)-2-methylmorpholine hydrochloride] |
| – | > 100 | C[C@H]1CN(C2CCN(c3ncccc3C(N)=O)CC2)[C@@H](Cc2ccc(Cl)cc2)CO1 [compound 114, 2-(4-((2S,5S)-5-(4-chlorobenzyl)-2-methylmorpholino)piperidin-1-yl)nicotinamide 2,2,2-trifluoroacetate] |
| – | > 100 | Cc1ncnc(N2CCC(N3C[C@H](C)OC[C@@H]3Cc3ccc(Cl)cc3)CC2)n1 [compound 172, (2S,5S)-5-(4-chlorobenzyl)-2-methyl-4-(1-(4-methyl-1,3,5-triazin-2-yl)piperidin-4-yl)morpholine 2,2,2-trifluoroacetate] |
| – | 0.1 to 1 | CC1CC(N2C[C@H](C)OC[C@@H]2Cc2ccc(Cl)cc2)CCN1c1cc(Cl)ccn1 (stereo partly drawn) [Example 34, (2S,5S)-5-(4-chlorobenzyl)-4-(1-(4-chloropyridin-2-yl)-2-methylpiperidin-4-yl)-2-methylmorpholine 2,2,2-trifluoroacetate] |
| – | 0.1 to 1 | C[C@H]1CN(C2CCN(c3ccccn3)CC2)[C@@H](Cc2ccc(Cl)cc2)CN1CC(=O)N(C)C [compound 101, 2-((2S,5S)-5-(4-chlorobenzyl)-2-methyl-4-(1-(pyridin-2-yl)piperidin-4-yl)piperazin-1-yl)-N,N-dimethylacetamide] |
| – | 1 to 10 | C[C@H]1CN(C2CCN(c3cccc(Cl)n3)CC2)[C@@H](Cc2ccc(Cl)cc2)CO1 [Example 14, (2S,5S)-5-(4-chlorobenzyl)-4-(1-(6-chloropyridin-2-yl)piperidin-4-yl)-2-methylmorpholine 2,2,2-trifluoroacetate] |
| < 0.1 | < 0.1 | CNC(=O)CN1C[C@H](Cc2ccc(Cl)cc2)N(C2CCN(c3ccccn3)CC2)C[C@@H]1CC(C)C [compound 95, 2-((2S,5S)-5-(4-chlorobenzyl)-2-isobutyl-4-(1-(pyridin-2-yl)piperidin-4-yl)piperazin-1-yl)-N-methylacetamide 2,2,2-trifluoroacetate] |

| Compound | IC50 [1] [µM] | IC50 (YKL-40) [µM] |
| --- | --- | --- |
| CN1C[C@H](Cc2ccc(Cl)cc2)N(C2CCN(c3ccccn3)CC2)C[C@@H]1Cc1ccc(Cl)cc1 [compound 63, (2S,5S)-2,5-bis(4-chlorobenzyl)-1-methyl-4-(1-(pyridin-2-yl)piperidin-4-yl)piperazine 2,2,2-trifluoroacetate] | 0.1 to 1 | 1 to 10 |
| CN(C)C(=O)OC[C@H]1CN(C2CCN(c3ncccn3)CC2)[C@@H](Cc2ccc(Cl)cc2)CO1 [compound 70, ((2R,5S)-5-(4-chlorobenzyl)-4-(1-(pyrimidin-2-yl)piperidin-4-yl)morpholin-2-yl)methyl dimethylcarbamate 2,2,2-trifluoroacetate] | – | 1 to 10 |
| Clc1ccc(C[C@H]2CN3CCOC[C@H]3CN2C2CCN(c3ccccn3)CC2)cc1 [compound 155, (7S,9aR)-7-(4-chlorobenzyl)-8-(1-(pyridin-2-yl)piperidin-4-yl)octahydropyrazino[2,1-c][1,4]oxazine hydrochloride] | – | < 0.1 |
| C[C@H]1CN(C2C[C@H]3CC[C@@H](C2)N3c2cc(Cl)ccn2)[C@@H](Cc2ccc(Cl)cc2)CO1 (stereo partly drawn) [compound 58, (2S,5S)-5-(4-chlorobenzyl)-4-((1R,5S)-8-(4-chloropyridin-2-yl)-8-azabicyclo[3.2.1]octan-3-yl)-2-methylmorpholine 2,2,2-trifluoroacetate] | – | > 100 |
